Reference: US6635250B2, “Use of certain metalloproteinase inhibitors for treating nerve disorders mediated by nucleus pulpsus” (A+ Science AB (publ), priority 1998, dated 2003)

Legend:
[1] = system: sacrococcygeal cauda equina; test: Series-3: nerve root conduction velocity seven days after autologous nucleus pulposus application; format: in vivo; conditions: pig, systemic treatment
Protocol: Series-3: Thirteen pigs had autologous nucleus pulposus placed onto their sacrococcygeal cauda equina similar to series-2. Five pigs (bodyweight 25 kg) received REMICADE® (infliximab) 100 mg i.v. preoperatively, and 8 pigs received ENBREL® (etanercept) 12.5 mg s.c. preoperatively and additionally 12.5 mg s.c. three days after the operation. Seven days after the nucleus pulposus-application the nerve root conduction velocity was determined over the application zone by local electrical stimulation according to series-2. Series-3: Thirteen pigs had autologous nucleus pulposus placed onto their sacrococcygeal cauda equina similar to series-2. […] Seven days after the nucleus pulposus-application the nerve root conduction velocity was determined over the application zone by local electrical stimulation according to series-2. […] The statistical difference between the groups, infliximab, and etanercept, nucleus pulposus without treatment (positive control from previous data) and application of retroperitoneal fat (negative control from previous data) was assessed by using ANOVA and Fisher's PLSD at 5%.

[2] = system: inducible nitrogen oxide synthetase; conditions: cited from earlier work
[3] = system: nerve roots; conditions: cited from earlier work

Compound | block of nucleus pulposus induced nerve injury (nerve conduction velocity) [1] | block of nucleus pulposus-related effects [3] | also measured
etanercept [EMBREL ®] | blocked the nucleus pulposus induced nerve injury efficiently | – | –
N=C(N)NN [Aminoguanidine] | – | – | inhibition of release of nitrogen oxide (NO) at nerve root injuries [2]: inhibit the release of nitrogen oxide (NO)
infliximab [REMICADE ®] | blocked the nucleus pulposus induced nerve injury efficiently | – | –
COc1ccc2c(c1)c(CC(=O)O)c(C)n2C(=O)c1ccc(Cl)cc1 [indomethacin] | – | slightly less efficiently | –
CCN(CC)CC(=O)Nc1c(C)cccc1C [lidocaine] | – | slightly less efficiently | –
